The test system of experiment [1] is Shank3 complete knockout mice. Description: Grooming Test in Shank3 complete knockout mice. Type of experiment: in vivo, mouse. Conditions: for acute effect on grooming: single IP dose, 20 min postdose, Day 1. The protocol: Animals. The breeding conditions and genotyping methods for Sapap3 and Shank3 complete knockout mice were the same as described in Welch et al. (Nature 2007, 448(7156):894-900) and in Wang et al. (Nat. Commun. 2016, 7:11459), respectively. Homozygous knockout mice and littermate wild type mice of both genders were used at 4 to 8 weeks of age.
Compound formulation. The test compounds were dissolved in a small volume of dimethyl sulfoxide (DMSO) and diluted in an aqueous solution of 2-hydroxypropyl-beta-cyclodextrin (HP-β-CD) and administered IP. Dosing volume was 10 mL/kg. At 20 minutes after dosing, the mice were subjected to the behavioral test as described below.
Testing room and apparatus. The test room was maintained under the same conditions as the colony rooms, except the mice were housed in conventional shoe-box cages with food, water, and nesting materials. Animals were housed in the test room 48-72 hours prior to testing, in order to permit the mice to fully acclimate to the test room and conventional housing cages before testing. Tests were conducted in white polyvinyl-fluoride hard-sided foam test arenas (20×20×12 cm). The arenas were indirectly illuminated by dimmable LED light bars placed level with the arena floor and 30 cm away from the external wall of the test arena. This permitted the internal area of the arena to be evenly illuminated at approximately 40 lux. The illumination levels where the mice were housed before testing were about 80-100 lux.
Testing procedure. Mice were carefully placed into the test arenas 20 minutes after compound administration. Animals were given free exploration of the arena for 10 minutes, after which they were gently sprayed with 4 quick pumps of a water mist (total water volume approximated 1.5-1.7 mL). Mice were then allowed an additional 10 minutes to self-groom and engage in other behaviors before being removed from the arena. All tests were videotaped using cameras mounted above the testing arena and were saved to digital media format using Noldus Media Player software (Noldus Information Technologies, Leesburg, Va.). The mice were only tested once in the acute studies and were repeatedly tested in the sustained effect studies.
Quantitation of grooming bouts. Analyses of the video recordings were conducted with TopScan behavioral recognition software (Cleversys Inc, Reston, Va.). Configurations were made which scored time spent in grooming. […] These settings permitted automated scoring of grooming by TopScan that corresponded well to manual-scoring of these behaviors by a trained blinded observer using Noldus Observer XT9 (Noldus Information Technologies), with an average corrected kappa of 0.925 (range 0.807-0.983).
Statistical analyses. Data are presented as means and standard error of the means (SEMs). Analyses were conducted using SPSS 23 (IBM SPSS Statistics, Chicago, Ill.). Time spent in grooming behavior (seconds) over the 10-minute pre- and post-spray time blocks were analyzed with repeated measures analyses of variance (RMANOVA). The pre- and post-spray times were used for the within subject effects and the genotype and compound treatment condition were used as the between subject effects. In sustained effect studies, days were also used for a within subject effect. […]
The amount of time mice spent grooming in a novel environment was quantified in Shank3 complete knockout mice (Wang et al. Nat. Commun. 2016, 7:11459) and their wild type littermates for 10 minutes. […]

Experiment [2] deals with wild type mice (male NMRI). Briefly: Marble Burying Test in wild type mice. Type of experiment: in vivo, mouse. A digest of the protocol:
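Male NMRI mice, 12 per group, received compound in 0.5% DMSO/4% HP-β-CD PO or IP 20 min before test. Marbles (25) buried two-thirds or more in sawdust were counted over a blind 30-min session. Groups were compared with vehicle by Kruskal-Wallis then Mann-Whitney U.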

A further experiment addresses human NR1/NR2B (Homo sapiens (Human), UniProt Q05586+Q13224). Description: NR2B antagonist activity: calcium influx (Fluo-4) assay in HEK293 cells. The format is cell-based. Conditions: read-out: NR2B IC50. A digest of the protocol: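 HEK293 cells expressing NR1/NR2A or NR1/NR2B, loaded with fluo-4-AM, preincubated 10 min at room temperature with compound in Hanks buffer/0.1% BSA.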

Where [3] appears, read: single dose 3 mg/kg IP on Day 1.
Where [4] appears, read: Mus musculus, ip, read-out: Percent Change in marbles buried relative to vehicle.
Setting [5] is: Mus musculus, po, read-out: Percent Change in marbles buried relative to vehicle.

Molecules are shown by their SMILES. pIC50: −log10 of the molar value. Where two headings read alike, the source gives them in different places.

Chain of human NR1/NR2B (Q13224 27-1484, other chains not shown): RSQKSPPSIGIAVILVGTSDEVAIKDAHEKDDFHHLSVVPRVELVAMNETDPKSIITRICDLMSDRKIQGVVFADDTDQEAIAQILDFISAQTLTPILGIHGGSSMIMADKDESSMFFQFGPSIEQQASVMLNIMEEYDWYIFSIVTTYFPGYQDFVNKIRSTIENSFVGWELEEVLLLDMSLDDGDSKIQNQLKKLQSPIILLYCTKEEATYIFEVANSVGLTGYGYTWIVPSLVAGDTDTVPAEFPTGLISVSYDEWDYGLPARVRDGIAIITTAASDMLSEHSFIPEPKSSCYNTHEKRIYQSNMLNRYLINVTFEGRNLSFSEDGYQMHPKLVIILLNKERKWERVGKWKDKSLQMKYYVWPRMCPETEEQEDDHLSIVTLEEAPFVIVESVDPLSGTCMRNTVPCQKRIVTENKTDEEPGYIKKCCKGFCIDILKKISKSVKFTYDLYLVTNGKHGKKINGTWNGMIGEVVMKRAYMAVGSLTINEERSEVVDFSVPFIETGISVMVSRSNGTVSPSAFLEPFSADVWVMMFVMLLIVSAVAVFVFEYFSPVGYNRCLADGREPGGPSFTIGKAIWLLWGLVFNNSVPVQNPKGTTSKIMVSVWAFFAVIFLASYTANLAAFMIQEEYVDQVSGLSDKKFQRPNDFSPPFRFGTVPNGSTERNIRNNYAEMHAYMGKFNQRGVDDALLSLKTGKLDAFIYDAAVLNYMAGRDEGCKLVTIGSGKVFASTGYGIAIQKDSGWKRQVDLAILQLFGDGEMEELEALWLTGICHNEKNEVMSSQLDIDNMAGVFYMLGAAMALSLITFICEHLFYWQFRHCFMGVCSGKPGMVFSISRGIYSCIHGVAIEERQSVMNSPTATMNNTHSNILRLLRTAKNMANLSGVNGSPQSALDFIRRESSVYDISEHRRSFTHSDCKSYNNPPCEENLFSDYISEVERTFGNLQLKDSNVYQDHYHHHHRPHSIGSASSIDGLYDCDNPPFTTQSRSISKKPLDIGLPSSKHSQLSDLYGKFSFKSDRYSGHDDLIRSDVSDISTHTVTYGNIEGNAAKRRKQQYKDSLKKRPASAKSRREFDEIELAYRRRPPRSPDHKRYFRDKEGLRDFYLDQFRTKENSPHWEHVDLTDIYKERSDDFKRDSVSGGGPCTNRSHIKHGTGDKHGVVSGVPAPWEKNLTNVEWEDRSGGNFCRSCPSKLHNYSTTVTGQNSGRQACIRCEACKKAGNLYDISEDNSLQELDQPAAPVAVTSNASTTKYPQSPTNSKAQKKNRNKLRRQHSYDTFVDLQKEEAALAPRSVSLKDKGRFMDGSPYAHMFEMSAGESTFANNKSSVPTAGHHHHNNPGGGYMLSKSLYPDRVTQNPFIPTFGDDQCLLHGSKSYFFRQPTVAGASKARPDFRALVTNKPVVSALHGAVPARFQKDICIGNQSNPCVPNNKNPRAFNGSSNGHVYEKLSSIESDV

Consider `FC(F)c1ccc(C(F)(F)CN2CCC(Nc3ncnc4[nH]ccc34)CC2)cc1` [C-179^A′], for which the “acute effect on grooming” value in experiment [1] is “significantly reduced grooming”. The “significantly reduced grooming through Day” value in experiment [1] (single dose 1 mg/kg IP on Day 1) was found to be 33 days. In experiment [1] (setting [3]), the “significantly reduced grooming through Day” value is 33 days. In addition, in experiment [2] (setting [4]), the change in vivo at 0.316 mg/kg amounted to 9%, the change in vivo at 3 mg/kg was -96% and the change in vivo at 10 mg/kg was -94%. Besides, in experiment [2] (setting [5]), the change in vivo at 1 mg/kg was -1.1%, the change in vivo at 3 mg/kg is -81% and the change in vivo at 10 mg/kg is -99%. In addition, the change in vivo at 1.78 mg/kg in experiment [2] (Mus musculus, po, 1.78 mg/kg, read-out: Percent Change in marbles buried relative to vehicle) was -81%.

For the compound `Cc1ccc(COC(=O)N2CC[C@H](CNc3nccn4cnnc34)C(F)(F)C2)cc1` [E1-1.2^B′], the pIC50 at human NR1/NR2B (Table 1.1B), on human NR1/NR2B (Table 1.3B) and on human NR1/NR2B (Table 1.4B) was 7.68 throughout.

As for `Cc1ccc(COC(=O)N2CC[C@H](CNc3cnc(C)cn3)C(F)(F)C2)cc1` [E1-21.26^B′], on human NR1/NR2B (Table 1.1B), the pIC50 is 7.54. In addition, the pIC50 at human NR1/NR2B (Table 1.3B) was 7.54. The pIC50 on human NR1/NR2B (Table 1.4B) was 7.54. Also, in experiment [2] (setting [4]), the change in vivo at 0.316 mg/kg was -14%, the change in vivo at 3 mg/kg was -97% and the change in vivo at 10 mg/kg is -96%. In experiment [2] (setting [5]), the change in vivo at 1 mg/kg came to 8%, the change in vivo at 3 mg/kg is -41% and the change in vivo at 10 mg/kg was -78%.

Turning to `Cc1ccc(COC(=O)N2CC[C@H](CNc3ncccn3)C(F)(F)C2)cc1` [E1-22.2^B′], the “acute effect on grooming” value in experiment [1] is on record as “significantly reduced grooming”. In experiment [1] (setting [3]), the “significantly reduced grooming through Day” value stood at 33 days. Also, the change in vivo at 0.03 mg/kg in experiment [2] (Mus musculus, ip, 0.03 mg/kg, read-out: Percent Change in marbles buried relative to vehicle) is -9%. Moreover, in experiment [2] (setting [4]), the change in vivo at 0.1 mg/kg is -13%, the change in vivo at 0.3 mg/kg is -92%, the change in vivo at 0.316 mg/kg was -68% and the change in vivo at 3 mg/kg is -93%. Moreover, the change in vivo at 10 mg/kg in experiment [2] (setting [4]) was -97%. In addition, in experiment [2] (setting [5]), the change in vivo at 0.1 mg/kg worked out at 14%, the change in vivo at 0.3 mg/kg was 16%, the change in vivo at 3 mg/kg was -88% and the change in vivo at 10 mg/kg was -99%. The “efficacy in the Marble Burying Test” value in experiment [2] (lowest test concentration of 1 mg/kg, IP) is listed as “fully efficacious”.

(Values after patent publication US11752155B2, “Treatment of autism spectrum disorders, obsessive-compulsive disorder and anxiety disorders” (Rugen Holdings (Cayman) Limited, priority 2016, dated 2023).)
